The values below come from article PMC4259414, “HS-133, a novel fluorescent phosphatidylinositol 3-kinase inhibitor as a potential imaging and anticancer agent for targeted therapy” (Oncotarget, 2014).

The subject of one data set is SkBr3 xenograft. Kind of data set: SkBr3 tumor xenograft study. Format: in vivo, BALB/c nude mice. How it is done:
We examined the effects of HS-133 using athymic BALB/c nude mice implanted with the SkBr3 cells. HS-133 was injected intratumorally 2 times per week with a dose of 5 mg/kg when tumors reached an average volume of 50–100 mm^3. […] The average tumor volume of HS-133 treated mice was reduced by about 50% compared to that of control mice (Fig. 8D). To assess the general toxicity, we also measured the body weight change in tumor-bearing mice.
To establish SkBr3 tumor xenograft in mice, the SkBr3 cell line was grown in a culture, detached by trypsinization, washed and resuspended in PBS. Six-week old athymic BALB/c nude mice (Central Lab. Animal Inc. Seoul, Korea) were injected with 5 × 10^6 cells in the right flank of each mouse to initiate tumor growth. After reaching a tumor volume of 50–100 mm^3, mice were randomly divided into two groups, each having six mice. Mice in the control group were fed with a 0.2 mL vehicle (DMSO:PEG400:saline = 5:50:45) by oral gavage daily and the second group with 10 mg/kg dose of HS-133 in 0.2 mL daily for 21 days. For intratumoral administration, HS-133 was injected intratumorally with 2 times per week with a dose of 5 mg/kg when tumors reached an average volume of 50–100 mm^3. The body weight and tumor size were recorded twice per week. The tumor size was calculated by 0.5 × long axis × (short axis) ^2. Animal care and experimental procedures were conducted in accordance with the Guide for Animal Experiments by the Korean Academy of Medical Sciences, and the protocols used to this study were approved by the Institutional Animal Care and Use Committee in Inha University Hospital (Approval No. 110802-105).

The next data set concerns SkBr3 cells. Kind of data set: apoptosis: Western blotting and TUNEL assay. Format: cell-based, human. An excerpt: Since PI3K and its downstream effectors appear to mediate anti-apoptotic signals, we examined the effect of HS-133 on apoptosis. […] We also observed that the levels of Bax, pro-apoptotic protein, were increased by HS-133 treatment in a dose-dependent manner. Furthermore, induction of apoptosis by HS-133 was confirmed by visualizing the fragmented DNA with TUNEL staining (Fig. 5B).
The cells were washed three times with ice-cold PBS before lysis, and were lysed with a buffer containing 1% Triton X-100, 1% Nonidet P-40 (NP-40), as well as protease and phosphatase inhibitor cocktails (GenDEPOT, Barker, TX). Equal amounts of protein were separated by 10% sodium dodecyl sulfate-polyacrylamide gel electrophoresis (SDS-PAGE) and transferred onto the polyvinylidene fluoride (PVDF) membranes (Millipore, Bedford, MA). Immunostaining was performed by incubating the blots with primary antibodies, followed by horseradish peroxidase (HRP)-conjugated secondary antibody and detected with an enhanced chemiluminescence (ECL) plus system (Amersham Biosciences, Piscataway, NJ). […]
The SkBr3 cells were plated on 18-mm cover glasses in DMEM medium and incubated for 24 h so that approximately 70% confluence was reached. […] The stained cells were examined for a fluorescence of nuclear fragmentation. […]
A general note: Immunoblotting shows a protein as a band on a membrane.

Another data set relates to T47D cells. Kind of data set: cell viability MTT assay, T47D. The conditions noted are these: Homo sapiens, 48 h, read-out: IC50, cell growth inhibition. Type of data set: cell-based. How it is done: To determine whether HS-133 can function as a novel anticancer compound, we tested the ability of this compound to inhibit the growth of breast cancer cell lines (SkBr3, T47D, and MCF-7) using an MTT assay. The cells were exposed to various concentrations (0.5–50 μM) of HS-133 for 48 h. As shown in Fig. 3A-C, HS-133 inhibited the growth of all three breast cancer cell lines in a dose-dependent manner.
Cell viability was performed by an MTT assay. Briefly, the SkBr3, T47D, and MCF-7 cells were plated at a density of 1-5 × 10^3 cells/well in a 96-well plate for 48 h. The medium was removed, and the cells were treated with either DMSO as control or various concentrations of HS-133. The final concentration of DMSO in the medium was ≤ 0.1% (v/v). After the cells were incubated for 48 h, 20 μl of MTT solutions (2 mg/ml) was added to each well for another 4 h at 37°C. The formazan crystals that formed were dissolved in DMSO (200 μl/well) via constant shaking for 5 min. The plate was then read on a microplate reader at 540 nm. Three replicate wells were used for each analysis. The median inhibitory concentration (IC50, defined as the drug concentration at which cell growth was inhibited by 50%) was assessed from the dose-response curves.
For orientation: Formazan colour is commonly taken as a measure of viable cells.

Regarding `CC(=O)Nc1ccc(-c2nc3c(c(=O)n(C)c(=O)n3C)n2-c2cccc(F)c2)cc1` [HS-133, N-(4-(7-(3-Fluorophenyl)-1,3-dimethyl-2,6-dioxo-2,3,6,7-tetrahydro-1H-purin-8-yl)phenyl) acetamide], in the data set with SkBr3 xenograft (intratumoral 5 mg/kg, 2 times per week, 19 days), the “tumor volume and weight” value is “remarkably reduced”. Moreover, the “reduction of average tumor volume compared to control mice” value in the data set on SkBr3 xenograft (oral 10 mg/kg daily for 21 days) is given as “about 50%”. In addition, in the data set on SkBr3 xenograft (same dose, SkBr3 xenograft mice), the “body weight change in tumor-bearing mice” value is reported as “no significant change”. Moreover, in the data set with SkBr3 cells, the “induction of apoptosis (cleavage of PARP and caspases, Bax, TUNEL)” value is given as “could induce apoptosis”. The IC50 in the data set on T47D cells was determined as 9.4 µM.

As a reminder, the IC50 is the concentration that gives 50% inhibition.
